Broadly, the IC50 is the concentration needed to halve the response being measured. For orientation: Papp means the rate of passage across a membrane or cell layer, normalised by area and donor concentration.

Molecules are shown by their SMILES.

One data set deals with Vanin-1 (Homo sapiens (Human), UniProt O95497). Put plainly: VNN1 inhibitor binding assay (Pantothenate-AMC fluorescence). It counts as biochemical.
Chain of Vanin-1 (O95497 22-513): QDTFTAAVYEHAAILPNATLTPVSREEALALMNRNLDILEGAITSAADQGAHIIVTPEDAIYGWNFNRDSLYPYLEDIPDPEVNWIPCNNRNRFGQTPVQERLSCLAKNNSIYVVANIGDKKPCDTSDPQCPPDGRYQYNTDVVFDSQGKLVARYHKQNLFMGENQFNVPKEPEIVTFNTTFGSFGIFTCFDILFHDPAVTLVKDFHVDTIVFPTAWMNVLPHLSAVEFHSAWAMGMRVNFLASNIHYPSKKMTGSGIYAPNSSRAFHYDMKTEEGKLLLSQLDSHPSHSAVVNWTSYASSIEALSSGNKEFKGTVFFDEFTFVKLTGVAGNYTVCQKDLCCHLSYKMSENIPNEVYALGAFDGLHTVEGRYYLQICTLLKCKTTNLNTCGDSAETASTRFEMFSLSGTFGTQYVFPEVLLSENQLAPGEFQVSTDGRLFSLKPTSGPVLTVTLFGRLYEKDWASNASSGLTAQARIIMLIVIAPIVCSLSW
Details: not given
How it is done: Vanin-1 inhibitor binding assays for selected compounds as described herein, and reference compound RR6 (also “(R)-2,4-dihydroxy-3,3-dimethyl-N-(3-oxo-4-phenylbutyl)butanamide”) were examined and the IC50 values of were determined.
5 μL of 3× (45 μM) of Pantothenate-AMC to achieve final concentrations of 15 μM (0.25% DMSO final) were added in a 384 well assay plate followed by the addition of 5 μL of 3× the desired concentration of the tested compounds (Compound 1; Compound 2; and RR6) in 0.75% DMSO to designated wells (0.25% of DMSO final). The range of the compound concentrations tested was 10, 3.33, 1.11, 0.37, 0.12, 0.04, 0.01, 0.0046, 0.001, and 0.0005 μM. 5 μL of 0.75% DMSO were also added to positive and negative control wells.
5 μL of 1.4 ng/μL Vanain-1 was added to the assay plate to achieve a final amount of 7 ng/well, and covered with plate sealer. Another 5 μL of assay buffer was added to negative controls and the assay plate was then centrifuged briefly (1000 rpm for 30 s) in a plate centrifuge. The assay plate was incubated in the dark for 20 minutes at room temperature and immediately read on an Envision 2105, PerkinElmer multimode plate reader.
The fluorescence read was captured at excitation wavelength of 355 nm and emission wavelength of 460 nm. Percent inhibition of the test compounds was calculated using the following equation: […]
In the above equation, “A” is the relative fluorescence units of the test compound (test compound+Pantothenate-AMC+Vanin1); “B” is the relative fluorescence units of the average minimum (DMSO+Pantothenate-AMC+assay buffer); and “C” is the relative fluorescence units of the average maximum (DMSO+Pantothenate-AMC+Vanin1).
Turning to `CC(C)(CO)[C@@H](O)C(=O)NCCC(=O)Cc1ccccc1` [RR6, (R)-2,4-dihydroxy-3,3-dimethyl-N-(3-oxo-4-phenylbutyl)butanamide, reference compound], the IC50 was 1 to 10 µM.

Still in this data set, the particulars now being: 15 μM Pantothenate-AMC, 7 ng/well Vanin-1, 20 minutes at room temperature; read-out: Vanin-1 IC50.
On to `O=C1NCCc2nc(NCc3cccnc3)ccc21` [Compound 2, 2-((Pyridin-3-ylmethyl)amino)-7,8-dihydro-1,6-naphthyridin-5(6H)-one], for which the IC50 lay within 1 to 10 µM.

As for `CN(C)CCN1Cc2nc(NCc3cccnc3)ccc2C1=O` [Compound 4, 6-(2-(Dimethylamino)ethyl)-2-((pyridin-3-ylmethyl)amino)-6,7-dihydro-5H-pyrrolo[3,4-b]pyridin-5-one], the IC50 is 1 to 10 µM.

`O=C1c2ccc(NCc3cccnc3)nc2CN1c1ccccc1` [Compound 11]: the IC50 is greater than 10 µM.

`CN(C)C(C)(C)CN1Cc2nc(NCc3cccnc3)ccc2C1=O` [Compound 12, 6-(2-(Dimethylamino)-2-methylpropyl)-2-((pyridin-3-ylmethyl)amino)-6,7-dihydro-5H-pyrrolo[3,4-b]pyridin-5-one]: the IC50 was 1 to 10 µM.

As for `CN(C)CCCN1Cc2nc(NCc3cccnc3)ccc2C1=O` [Compound 13, 6-(3-(Dimethylamino)propyl)-2-((pyridin-3-ylmethyl)amino)-6,7-dihydro-5H-pyrrolo[3,4-b]pyridin-5-one], the half-maximal inhibitory concentration (IC50) was in the range of 1 to 10 µM.

As to `CC(=O)NCCCN1Cc2nc(NCc3cccnc3)ccc2C1=O` [Compound 15, N-(3-(5-Oxo-2-((pyridin-3-ylmethyl)amino)-5,7-dihydro-6H-pyrrolo[3,4-b]pyridin-6-yl)propyl)acetamide], the IC50 lay within 1 to 10 µM.

In the case of `O=C1c2ccc(NCc3cccnc3)nc2CN1Cc1cnccn1` [Compound 17], the 50% inhibitory concentration (IC50) is 1 to 10 µM.

`CC(C)N1Cc2nc(NCc3cccnc3)ccc2C1=O` [Compound 19]: the IC50 lay in the range of 1 to 10 µM.

For the compound `CC(=O)NCCN1Cc2nc(N[C@H](C)c3cccnc3)ccc2C1=O` [Compound 22, (R)—N-(2-(5-oxo-2-((1-(pyridin-3-yl)ethyl)amino)-5,7-dihydro-6H-pyrrolo[3,4-b]pyridin-6-yl)ethyl)acetamide], the IC50 was greater than 10 µM.

`CC(=O)NCCN1Cc2nc(NCc3cncc(F)c3)ccc2C1=O` [Compound 26, N-(2-(2-(((5-fluoropyridin-3-yl)methyl)amino)-5-oxo-5,7-dihydro-6H-pyrrolo[3,4-b]pyridin-6-yl)ethyl)acetamide]: the half-maximal inhibitory concentration (IC50) was in the range of 1 to 10 µM.

As to `CC(=O)NCCN1Cc2nc(NCc3ccncc3)ccc2C1=O` [Compound 27, N-(2-(5-oxo-2-((pyridin-4-ylmethyl)amino)-5,7-dihydro-6H-pyrrolo[3,4-b]pyridin-6-yl)ethyl)acetamide], the concentration for half-maximal inhibition (IC50) was 1 to 10 µM.

For `COc1ccccc1CNc1ccc2c(n1)CN(CCNC(C)=O)C2=O` [Compound 28, N-(2-(2-((2-methoxybenzyl)amino)-5-oxo-5,7-dihydro-6H-pyrrolo[3,4-b]pyridin-6-yl)ethyl)acetamide], the 50% inhibitory concentration (IC50) lay within 1 to 10 µM.

Take `COc1ccc(F)cc1CNc1ccc2c(n1)CN(CCNC(C)=O)C2=O` [Compound 29, N-(2-(2-((5-fluoro-2-methoxybenzyl)amino)-5-oxo-5,7-dihydro-6H-pyrrolo[3,4-b]pyridin-6-yl)ethyl)acetamide]: the half-inhibitory concentration (IC50) was in the range of 1 to 10 µM.

As to `CC(=O)NC(C)(C)CN1Cc2nc(NCc3cccnc3)ccc2C1=O` [Compound 38, N-(2-methyl-1-(5-oxo-2-((pyridin-3-ylmethyl)amino)-5,7-dihydro-6H-pyrrolo[3,4-b]pyridin-6-yl)propan-2-yl)acetamide], the IC50 was in the range of 1 to 10 µM.

Take `CC(=O)NCCN1Cc2nc(NCc3ccc(C#N)nc3)ccc2C1=O` [Compound 40, N-(2-(2-(((6-cyanopyridin-3-yl)methyl)amino)-5-oxo-5,7-dihydro-6H-pyrrolo[3,4-b]pyridin-6-yl)ethyl)acetamide]: the IC50 was in the range of 1 to 10 µM.

Consider `N#Cc1cncc(CNc2ccc3c(n2)CN(CCNC(=O)C2CC2)C3=O)c1` [Compound 43, N-(2-(2-(((5-cyanopyridin-3-yl)methyl)amino)-5-oxo-5,7-dihydro-6H-pyrrolo[3,4-b]pyridin-6-yl)ethyl)cyclopropanecarboxamide], for which the half-maximal inhibitory concentration (IC50) was greater than 10 µM.

Take `CC(=O)NCCN1Cc2nc(NCc3cnccn3)ccc2C1=O` [Compound 50]: the concentration for half-maximal inhibition (IC50) was in the range of 1 to 10 µM.

As to `CC(=O)NCCN1Cc2nc(NCc3cc(F)c(F)c(F)c3)ccc2C1=O` [Compound 71, N-(2-(5-oxo-2-((3,4,5-trifluorobenzyl)amino)-5,7-dihydro-6H-pyrrolo[3,4-b]pyridin-6-yl)ethyl)acetamide], the IC50 lay within 1 to 10 µM.

For the compound `CCC(=O)NCCN1Cc2nc(NCc3cc(F)c(F)c(F)c3)ccc2C1=O` [Compound 72, N-(2-(5-oxo-2-((3,4,5-trifluorobenzyl)amino)-5,7-dihydro-6H-pyrrolo[3,4-b]pyridin-6-yl)ethyl)propionamide], the IC50 was 1 to 10 µM.

With `CCC(=O)NCCN1Cc2nc(NCc3cnccc3C(F)(F)F)ccc2C1=O` [Compound 74, N-(2-(5-oxo-2-(((4-(trifluoromethyl)pyridin-3-yl)methyl)amino)-5,7-dihydro-6H-pyrrolo[3,4-b]pyridin-6-yl)ethyl)propionamide], the IC50 was in the range of 1 to 10 µM.

Turning to `CCC(=O)NCCN1Cc2nc(NCc3ccc(F)cc3C)ccc2C1=O` [Compound 78, N-(2-(2-((4-fluoro-2-methylbenzyl)amino)-5-oxo-5,7-dihydro-6H-pyrrolo[3,4-b]pyridin-6-yl)ethyl)propionamide], the IC50 was in the range of 1 to 10 µM.

Staying with this data set, now noted: comparison with reference compound RR6.
Turning to `O=C1NCc2nc(NCc3cccnc3)ccc21` [Compound 1, 2-((Pyridin-3-ylmethyl)amino)-6,7-dihydro-5H-pyrrolo[3,4-b]pyridin-5-one], the “potency (half-maximal inhibitory concentration) compared to RR6” value is on record as “up to two orders of magnitude greater than RR6”.

As to `O=C1NCCc2nc(NCc3cccnc3)ccc21` [Compound 2, 2-((Pyridin-3-ylmethyl)amino)-7,8-dihydro-1,6-naphthyridin-5(6H)-one], the “potency (half-maximal inhibitory concentration) compared to RR6” value is given as “comparable to RR6”.

Test system in the next data set: not listed separately
Put plainly: PAMPA permeability assay. The note with it: 20 μM donor in PBS/MeOH 90:10, 5 hours at room temperature. Type of data set: in vitro ADME. The text has this:
Parallel artificial membrane permeability (PAMPA) assay is a non-cell based assay designed to predict in vivo biological membrane permeability of drugs in early stage of drug discovery. The 96-well Corning Gentest Pre-coated PAMPA Plate System (catalog no. 353015) was used to perform the assay. The Corning Gentest Pre-coated PAMPA plate system was designed by 96-well insert system with a […] PVDF (polyvinylidene fluoride) filter plate which has been pre-coated with structured tri-layers of phospholipids (lipid/oil/lipid) and a matched receiver microplate.
Donor solutions of test compounds (300 μL, 20 μM in PBS/MeOH 90:10) were added to each well of the donor plate. 200 μL of PBS/MeOH 90:10 was added to each well of the acceptor plate. The acceptor plate was coupled with the donor plate and incubated for 5 hours at room temperature (RT) without agitation. In each plate, compounds were tested in triplicate. At the end of the incubation, drug concentration in the initial donor solution, acceptor and the donor wells were determined using LC/MS/MS. A five (5) points standard curve from 0.1 to 1000 nM for each test compound were prepared. Analyte samples were diluted to within standard curve concentration with ACN/H2O 50:50 prior analysis.
All samples were analyzed by electrospray ionization (ESI) liquid chromtograph/mass spectrometry (LC/MS) system utilizing Sciex 5500 quadropule ion trap (Qtrap) mass spectrometry with Shidmazu Nexera X2 UHPLC. The LC-MS/MS instrument monitored each of the test compound in the study based of their respective mass-to-charge (m/z) transitions and MS parameters. Chromatographic separation was achieved on Phenomenex Luna C18 column (50×2.0 mm, 3 μm particle size) by using a gradient elution: mobile phase A contains 0.1% formic acid in water and mobile phase B contains 0.1% formic acid in acetonitrile; A/B (99:1) from 0 to 1 minutes; to A/B (1:99) from 1 to 4 minutes; A/B (1:99) from 4 to 8 minutes; to A/B (99:1) from 8 to 8.20 minutes; A/B (99:1) from 8.2 to 9 minutes. The flow rate was 0.4 mL/min and the column temperature was maintained at 35° C. and autosampler temperature at 4° C. For detection, the electrospray ionization operated in the positive mode using multiple reaction monitoring (MRM).
Data acquisition, and peak integrations were obtained by Analyst® Version 1.7.1 (Sciex) operating with Windows® (Microsoft). The standard curve regressions and sample concentrations were generated and calculated by Analyst®. Concentrations in the sample solutions were determined based on the measured peak area ratios from the response of the analyte to the internal standard with reference to the standard calibration curve. All sample calculations were calculated using a linear regression with 1/x2 weighting (where x is the concentration of given calibration standard level).
Permeability of the test compounds was calculated using the following formula:
Where: • A=filter area=[…] • VA=acceptor well volume (0.2 mL) • VD=donor well volume […], • t=incubation time=5 hours=18000 seconds, • CA(t)=compound concentration in acceptor well at time t (nM), • CD(t)=compound concentration in donor well at time t (nM), and […]
On the technique in general: In PAMPA a lipid-coated filter parts donor from acceptor wells.
With `CC(=O)NCCN1Cc2nc(NCc3c(F)cc(F)cc3F)ccc2C1=O` [Compound 37, N-(2-(5-oxo-2-((2,4,6-trifluorobenzyl)amino)-5,7-dihydro-6H-pyrrolo[3,4-b]pyridin-6-yl)ethyl)acetamide], the apparent permeability (Papp) at 5 h, 20 µM was 0.68 ×10⁻⁶ cm/s.

On to `CCC(=O)NCCN1Cc2nc(NCc3c(F)cc(F)cc3F)ccc2C1=O` [Compound 73, N-(2-(5-oxo-2-((2,4,6-trifluorobenzyl)amino)-5,7-dihydro-6H-pyrrolo[3,4-b]pyridin-6-yl)ethyl)propionamide], for which the apparent permeability coefficient (Papp) at 5 h, 20 µM was 0.79 ×10⁻⁶ cm/s. The Papp at 5 h, 20 µM values of the last two compounds are within 1.5-fold of each other.

The compound `[2H]C([2H])([2H])C(=O)NCCN1Cc2nc(NCc3c(F)cc(F)cc3F)ccc2C1=O` [Compound 202, N-(2-(5-oxo-2-((2,4,6-trifluorobenzyl)amino)-5,7-dihydro-6H-pyrrolo[3,4-b]pyridin-6-yl)ethyl)acetamide-2,2,2-d3] gave an apparent permeability (Papp) at 5 h, 20 µM of 1.83 ×10⁻⁶ cm/s.

Staying with this data set, now noted: deuterated vs non-deuterated (Compounds 37 and 73, respectively).
On to `[2H]C([2H])([2H])C(=O)NCCN1Cc2nc(NCc3c(F)cc(F)cc3F)ccc2C1=O` [Compound 202, N-(2-(5-oxo-2-((2,4,6-trifluorobenzyl)amino)-5,7-dihydro-6H-pyrrolo[3,4-b]pyridin-6-yl)ethyl)acetamide-2,2,2-d3], for which the “permeability compared to non-deuterated counterparts” value is “improved permeability”.
